Assays:
[1] = target: T1, EP3 membrane (EP3 receptor) (Homo sapiens, UniProt P43115); experiment: [3H]-PGE2 binding; EP3 competition binding (SPA)
T1 construct: purchased Millipore HTS092M
T1 sequence (P43115 1-390): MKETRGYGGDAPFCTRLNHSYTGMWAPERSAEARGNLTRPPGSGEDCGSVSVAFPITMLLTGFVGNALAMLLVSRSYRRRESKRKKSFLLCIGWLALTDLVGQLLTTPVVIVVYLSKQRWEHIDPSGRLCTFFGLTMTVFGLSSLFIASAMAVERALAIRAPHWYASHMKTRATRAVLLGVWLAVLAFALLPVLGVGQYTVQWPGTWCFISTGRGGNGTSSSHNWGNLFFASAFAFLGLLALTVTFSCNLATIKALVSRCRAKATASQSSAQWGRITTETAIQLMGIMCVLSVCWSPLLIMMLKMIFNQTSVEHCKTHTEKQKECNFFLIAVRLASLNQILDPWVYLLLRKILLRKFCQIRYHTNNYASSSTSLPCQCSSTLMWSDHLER
Summary of the method: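 Ki derived from one-site nonlinear regression of scintillation proximity counts after 2 h room-temperature equilibration. Serially diluted (1:3) compounds competed against [3H]-PGE2 (2 nM) for EP3 receptor membranes (2 μg/well) in pH 7.4 Tris buffer with 10 mM MgCl2, 1 mM EDTA, 0.1% DMSO.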

[2] = target: T2, CHO cells over-expressing the EP3 receptor (Homo sapiens, UniProt P43115); experiment: CHO cell cAMP assay; EP3 cAMP antagonist dose response (sulprostone reference), HTRF; assay type: cell-based; details: sulprostone 700 nM (EC80) and FSK 2 μM (EC70); read-out: CHO_cAMP IC50
T2 construct: expressed in transfected cells; host or cells: CHO cells
T2 sequence (P43115 1-390): T1 sequence (P43115 1-390)
Summary of the method: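 EP3-overexpressing CHO cells pre-incubated with test compound, then stimulated 30 min at 37 °C with FSK (2 μM, EC70) plus sulprostone (700 nM, EC80); antagonism seen as restored cAMP. cAMP measured by HTRF 665/615 ratio, converted via on-plate standard curve. IC50 from Hill fit of 11-point dosing.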

male Sprague Dawley rats = experiment: IV infused EP3 antagonists on circulating insulin and glucose in the sulprostone infusion IVGTT model; assay type: in vivo, rat; details: SD rats, 2.1 mg/kg bolus followed by 3.09 mg/kg/hour infusion
Description: Biological Example 3: IV Infused EP3 Antagonists on Circulating Insulin and Glucose in the Sulprostone Infusion IVGTT Model
Jugular vein and carotid artery cannulated male Sprague Dawley rats (˜250 g, available from Charles River) were housed one rat per suspended cage in a temperature-controlled room with 12-hour light/dark cycle. The rats were allowed ad libitum access to water and maintained on a regular diet. Animals were acclimated for minimum 5 days prior to the start of the experiment. Experimental procedures were carried out in accordance with institutional standards for animal care and were approved by the institute's animal care and use committee.
A blood sample for insulin and blood chemistry was collected at 20 min (t=−20) prior to the start of dosing with sulprostone and/or test compound (EP3 antagonist). […]
Blood samples from all animals were collected into Heparin treated tubes. Background was measured via a glucometer at the 0 and 2 min time points to ensure that the animal received the glucose bolus. Plasma insulin was measured via a Meso Scale Discovery metabolic assay (available from Meso Scale). Plasma glucose, free fatty acid (FFA), triglycerides, cholesterol and ketones were measured on an OLYMPUS AU400E chemistry analyzer. Observations on animal health were recorded throughout the procedure. […]

Compound | Ki [1] | IC50 [2] | suppression of glucose stimulated insulin secretion (GSIS) by sulprostone (male Sprague Dawley rats)
O=C(NC/C=C1\CCCc2cnn(Cc3ccc(Cl)cc3Cl)c21)NS(=O)(=O)c1ccc(Cl)cc1 [Compound #4, (E)-4-chloro-N-((2-(1-(2,4-dichlorobenzyl)-1,4,5,6-tetrahydro-7H-indazol-7-ylidene)ethyl)carbamoyl)benzenesulfonamide] | 0.004 µM | 0.012 µM | reverse suppression of glucose stimulated insulin secretion (GSIS) by sulprostone
O=C(C/C=C1\CCCc2cnn(Cc3ccc(Cl)cc3Cl)c21)NS(=O)(=O)c1ccc2c(c1)OCCO2 [Compound #18, (E)-3-(1-(2,4-dichlorobenzyl)-1,4,5,6-tetrahydro-7H-indazol-7-ylidene)-N-((2,3-dihydrobenzo[b][1,4]dioxin-6-yl)sulfonyl)propenamide] | 0.147 µM | 0.662 µM | 
O=C(NC/C=C1\CCCc2cnn(Cc3ccc(Cl)cc3Cl)c21)NS(=O)(=O)c1cc2ccccc2o1 [Compound #28, (E)-N-((2-(1-(2,4-dichlorobenzyl)-1,4,5,6-tetrahydro-7H-indazol-7-ylidene)ethyl)carbamoyl)benzofuran-2-sulfonamide] | 0.006 µM | 0.027 µM | 
COc1ccc(Cl)cc1S(=O)(=O)NC(=O)NC/C(F)=C1/CCCc2cnn(-c3ccc4ccccc4c3)c21 [Compound #106, (E)-5-chloro-N-((2-fluoro-2-(1-(naphthalen-2-yl)-1,4,5,6-tetrahydro-7H-indazol-7-ylidene)ethyl)carbamoyl)-2-methoxybenzenesulfonamide] | > 10 µM | > 20 µM | 
Cc1nc(C)c(S(=O)(=O)NC(=O)NC/C=C2\CCCc3cnn(Cc4ccc(Cl)cc4Cl)c32)s1 [Compound #150, (E)-N-((2-(1-(2,4-dichlorobenzyl)-1,4,5,6-tetrahydro-7H-indazol-7-ylidene)ethyl)carbamoyl)-2,4-dimethylthiazole-5-sulfonamide] | 0.002 µM | 0.004 µM | 
